Literature values, collected in patent publication US20250352557A1, “COMPOSITIONS FOR PERITONEAL DRUG DELIVERY AND METHODS OF USE THEREOF” (Viramal Limited, priority 2023, published 2025).

Tests used:
[1] = not given; remark: listed apart in the source
[2] = vaginal administration; previously refractory patients

Log P	Bioavailability with intake of foods high in fat ([1]; oral)	Time at which peak-plasma concentrations are reached ([1]; oral (Danatrol form))	Peak-plasma concentrations ([1]; oral (Danatrol form), absorbed from the gastrointestinal tract)	Compound	Average consumption of pain relief tablets (e.g., naproxen) reduced by [2]	Patient satisfaction [2]
3.82	–	–	–	CC(=O)[C@H]1CC[C@H]2[C@@H]3CCC4=CC(=O)CC[C@]4(C)[C@H]3CC[C@]12C [progesterone]	–	–
–	tripled	2 to 3 h	50 to 80 ng/mL	C#C[C@]1(O)CC[C@H]2[C@@H]3CCC4=Cc5oncc5C[C@]4(C)[C@H]3CC[C@@]21C [Danazol, 17α-Pregna-2,4-dien-20-yno [2,3-d]-isoxazol-17-ol]	60%	80%
